Assay results published in patent US11291756B2, “Acoustic separation for bioprocessing” (THE CHARLES STARK DRAPER LABORATORY, INC., priority 2016, dated 2022).

Tests used:
Format in all cases: cell-based
platelets [1] = test: Platelet aggregate size produced by ADP; settings: 10 μM ADP
platelets [2] = test: Acoustic separation of platelets from lymphocytes in a blood sample pretreated with a platelet activator; settings: adenosine diphosphate 2-50 μM, incubated 10-20 minutes
Procedure: A blood sample comprising lymphocytes and platelets was subjected to acoustic energy, generally as described above. Prior to flowing the blood sample through a microfluidic separation channel, the blood sample was pretreated by diluting with an additive comprising a platelet activator, adenosine diphosphate. Adenosine diphosphate was added at a concentration of 2-50 μM. The samples were incubated for 10-20 minutes before starting the acoustic separation.

platelets [3] = test: Acoustic separation of platelets from lymphocytes in blood buffy coat samples pretreated with a platelet activator
Procedure: Blood buffy coat samples from 3 donors (comprising lymphocytes and platelets) were subjected to acoustic energy, generally as described above. Prior to flowing the blood buffy coat samples through a microfluidic separation channel, the blood buffy coat samples were pretreated. Experimental samples were treated with 8 μM adenosine diphosphate (ADP) in buffer and control samples were treated with buffer only to a final dilution of approximately 1:3 buffy coat:buffer (about 10^9 cells/ml). The samples were incubated for 5 min before separation. The samples were flowed at 0.1 ml/min through a single polystyrene microchannel mounted on an oscillator using the methods described herein. The acoustic force displaced larger and more dense cells and platelet cell aggregates toward a center outlet (waste) while side outlets collected the lymphocyte-enriched product, generally as shown in FIG. 15. The products were compared to the input solution using both a hematology analyzer (Sysmex Corporation, Kobe, Hyogo Prefecture, Japan) to count cells and ELISA of the platelet-specific glycoprotein IIb/IIIa.

Nc1ncnc2c1ncn2[C@@H]1O[C@H](COP(=O)(O)OP(=O)(O)O)[C@@H](O)[C@H]1O [ADP, adenosine diphosphate]
diameter of platelet aggregates (platelets [1]): about 10 μm
response of platelets to the acoustic field (platelets [2]): responded more strongly to the acoustic field than individual platelets
platelet content by glycoprotein IIb/IIIa assay (ELISA) (platelets [3]; ADP 8 μM): significantly reduced platelet content
reduction of platelet count in the product versus control (platelets [3]; ADP 8 μM): nearly ten-fold
decrease of platelet count in the product compared to the starting material (platelets [3]; ADP 8 μM in buffer, 5 min incubation, buffy coat from 3 donors, hematology analyzer, buffer control 274% increase): 69%
hematocrit of product (platelets [3]; ADP 8 μM, depleted from 10%): 4.5%
platelet depletion on increasing the concentration (platelets [3]; ADP 32 μM versus 8 μM): did not further improve platelet depletion
platelet contamination in the collected lymphocytes compared to controls (platelets [3]; ADP versus buffer-only controls): strongly reduced platelet contamination
increase of lymphocyte purity (platelets [3]; with or without ADP added, input 41% to output 84%): 104%
lymphocyte output purity (platelets [3]; with or without ADP added, input purity 41%): 84 % WBC
